Experimental data reported in US20240043483A1, “TAU BIOSENSOR CELL LINES” (THE BOARD OF REGENTS OF THE UNIVERSITY OF TEXAS SYSTEM, priority 2020, published 2024).

Columns and labels:
Type in all cases: cell-based, human
HEK biosensor cells = assay: Immunoprecipitation from spiked control CSF followed by seeding assay; conditions: 1 ml control CSF spiked
Description: 50 μl of Dynabeads Protein A (Thermo Fisher) were washed per the manufacturer protocol and incubated with 10 μg of polyclonal antibody (TauA, Diamond Lab) against the first microtubule-binding repeat of tau for 1 hour at room temperature. washed beads were then added to 1 or 5 ml of human CSF and incubated with rotation overnight at 4° C. Captured proteins were eluted in low pH elution buffer (Pierce) and neutralized the buffer with 1:10 1M Tris pH 8.5 with a final volume of 120 μl.
(§1) P301S4 or P301S v2L or v2H HEK biosensor cells were plated in 96-well plates at 20,000 cells per well 24 hours before treatment. dilutions of recombinant tau fibrils or brain homogenates in Opti-MEM (Thermo Fisher), 30 μl total volume, or immunoprecipitation eluents 120 μl total volume, were allowed to come to room temperature. […] After 48 hours, cells were trypsinized and fixed in 2% PFA and suspended in flow cytometry buffer (1×HBSS, 1% FBS, 1 mM EDTA). percent FRET positivity was determined of each well by flow cytometry.
To determine the lower limit of detection of tau seeds in CSF, control CSF were spiked with small quantities of AD frontal cortex protein (brain AD1) or recombinant tau fibrils. the AD seeds were concentrated and purified using a rabbit polyclonal antibody directed against tau RD (TauA).

[1] = tested on: P301S v2L HEK biosensor cells; assay: Seeding assay, percent FRET positivity by flow cytometry, v2L biosensor cells
Source text: A lentiviral FM5-YFP plasmid containing the tau segment 246 to 378 with the P301S mutation, was used as a template, where the human ubiquitin C (Ubc) promoter was replaced with a human cytomegalovirus (CMV) promoter, and the YFP sequence was replaced with a mCerulean 3 or mClover3 coding sequences (see FIGS. 1 and 2). The sequence linking the tau segment and the coding sequence of the fluorophore (Cer or Co) was optimized to the following sequence: GSAGSAAGSGEF (SEQ ID NO:41). Low passage HEK293T cells (P5) were thawed and passaged with antibiotic free media twice before being co-administration of lentivirus encoding tau RD(P301S)-Clo/Cer tau lentivirus. After four passages, single cells were cell sorted by FACS based on low or high signal for both mCerulean3 and mClover3, termed version 2 low (v2L) or version 2 high (v2H). Monoclonal colonies were expanded and characterized as described.
Wild-type full-length (2N4R) tau was synthesized and purified. […]
as §1
(§2) The sensitivity of v2L and v2H cells was first compared to the original line. synthetic fibrils based on exposure of recombinant tau protein to heparin were created. The fibrils were incubated with cells in the absence or presence of Lipofectamine 2000 for 48 h and quantified the percentage of FRET-positive cells using flow cytometry to determine the lower limit of detection. […] In the absence of cationic lipid reagent, 1.6 pM tau were detected in v2L cells and 0.78 pM tau in v2H cells (FIGS. 5A and 5B). […]

[2] = tested on: P301S v2H HEK biosensor cells; assay: Seeding assay, percent FRET positivity by flow cytometry, v2H biosensor cells; conditions: for lower limit of detection (LLD), lowest quantity producing FRET positivity statistically distinguishable from background: v2H, T-test p<0.05
P301S v1 biosensor cells = assay: Seeding assay, percent FRET positivity by flow cytometry, v1 (original) biosensor cells; conditions: T-test p<0.05
Description: Wild-type full-length (2N4R) tau was synthesized and purified. 8 μM purified recombinant tau was incubated with 8 uM heparin and 10 mM DTT at 37 C for 48 h in 10 mM HEPES, 100 mM NaCL, PH 7.4. The quality of fibrils was verified by transmission electron microscopy.
as §1, §2

## recombinant tau fibrils: Wild-type full-length (2N4R) recombinant tau incubated with heparin and DTT at 37 C for 48 h to form fibrils
HEK biosensor cells; IP with TauA antibody, FIG. 7C
  seeding activity detected in spiked CSF after IP, lowest level (monomer equivalent): 100 attomolar
HEK biosensor cells; IP, FIG. 7
  seeding detected from spiked samples down to (tau monomer equivalent): 100 attomoles
[1]; v2L cells, absence of cationic lipid reagent, FIGS. 5A and 5B
  tau detected (lower limit of detection): 1.6 pM
[1]; v2L cells, presence of Lipofectamine 2000, 48 h, FIGS. 4A and 4B
  lower limit of detection (detected, monomer equivalent): 10 fM
[1]; v2L lines versus original biosensor line
  sensitivity versus the original line: approximately 10 fold
[2]; v2H cells, absence of cationic lipid reagent, FIGS. 5A and 5B
  tau detected (lower limit of detection): 0.78 pM
[2]; v2H cells, presence of Lipofectamine 2000, 48 h, FIGS. 4A and 4B
  lower limit of detection (detected, monomer equivalent): 32 aM
[2]; v2H line versus original biosensor line
  sensitivity versus the original biosensor cell line: more than 300 fold
[2]; Lipofectamine seeding
  lower limit of detection (LLD), lowest quantity producing FRET positivity statistically distinguishable from background: 32 amol per sample
[2]; naked seeding
  lower limit of detection (LLD), lowest quantity producing FRET positivity statistically distinguishable from background: 0.78 pmol
P301S v1 biosensor cells; v1, Lipofectamine seeding
  lower limit of detection (LLD), lowest quantity producing FRET positivity statistically distinguishable from background: 10 fmol per sample
P301S v1 biosensor cells; v1, naked seeding
  lower limit of detection (LLD), lowest quantity producing FRET positivity statistically distinguishable from background: 1.6 pmol
